Data on four compounds can be found in publication PMC9002841, “Characterization of Promising Cytotoxic Metabolites from Tabebuia guayacan Hemsl.: Computational Prediction and In Vitro Testing” (Plants, 2022).

One assay deals with T1, CDK2/CyclinA2 (Homo sapiens, UniProt P24941).
T1 construct: purchased #79599
The assay is described as follows: In vitro CDK-2 inhibitory activity (Kinase-Glo MAX kinase assay). As to conditions: mean ± SD. In kind it is biochemical. The source says:
(§1) The Assay Kits are designed to measure CDK2/CyclinA2 and VEGFR-2 (KDR) activities for screening and profiling applications, using Kinase-Glo® MAX as a detection reagent. The CDK-2 Assay Kit comes in a convenient 96-well format, with enough purified recombinant CDK2/CyclinA2 enzyme, CDK substrate peptide, ATP, and kinase assay buffer for 100 enzyme reactions, while the VEGFR-2 Assay Kit comes in a convenient 96-well format, with enough purified recombinant VEGFR-2 (KDR) enzyme, PTK substrate, ATP, and kinase assay buffer for 100 enzyme reactions. […] The CDK2/CyclinA2 and VEGFR-2 (KDR) activities at a single dose concentration of 10µM were performed, where the Kinase-Glo MAX luminescence kinase assay kit (Promega#V6071) was used. The compounds were diluted in 10% DMSO and 5 µL of the dilution was added to a 50 µL reaction so that the final concentration of DMSO was 1% in all of the reactions. All of the enzymatic reactions were conducted at 30 °C for 45 min. […] After the enzymatic reactions, 50 µL of Kinase-Glo® MAX Luminescence kinase assay solution was added to each reaction and the plates were incubated for 15 min at room temperature. Luminescence signal was measured using a Bio Tek Synergy 2 microplate reader.
(§2) Data were analyzed using one-way analysis of variance (ANOVA) for multiple comparison between all compounds followed by Tukey–Kramer post-ANOVA test. […]

For the next assay, the target named is T2, VEGFR-2 (KDR) (Homo sapiens, UniProt P35968).
T2 construct: purchased #40325
The assay is described as follows: In vitro VEGFR-2 inhibitory activity (Kinase-Glo MAX kinase assay). In kind it is biochemical. As to conditions: mean ± SD.
Excerpt: as §1, §2

The target in the next assay is T3, CDK6/Cyclin D3 (Homo sapiens, UniProt Q00534).
T3 construct: purchased Promega V4489
Description: In vitro CDK-6 inhibitory activity (ADP-Glo kinase assay). In kind it is biochemical. As to conditions: mean ± SD. The protocol:
Data were analyzed using one-way analysis of variance (ANOVA) for multiple comparison between all compounds followed by Tukey–Kramer post-ANOVA test. The differences were considered statistically significant at p < 0.05.
Background: In ADP-Glo the light output rises with the ADP produced.

The next assay relates to topoisomerase-1. As to conditions: cited from earlier work.

T3 sequence (Q00534 whole entry): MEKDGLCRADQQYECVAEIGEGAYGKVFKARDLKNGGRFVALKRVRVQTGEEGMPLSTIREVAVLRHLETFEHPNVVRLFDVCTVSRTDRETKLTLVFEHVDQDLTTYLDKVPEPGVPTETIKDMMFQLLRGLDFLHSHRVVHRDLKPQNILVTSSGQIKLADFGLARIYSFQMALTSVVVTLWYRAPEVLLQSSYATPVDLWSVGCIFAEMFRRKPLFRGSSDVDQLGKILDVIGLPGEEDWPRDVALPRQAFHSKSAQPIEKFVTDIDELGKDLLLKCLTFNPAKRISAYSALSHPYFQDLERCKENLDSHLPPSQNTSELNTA
T3 sequence (P30281 whole entry partner): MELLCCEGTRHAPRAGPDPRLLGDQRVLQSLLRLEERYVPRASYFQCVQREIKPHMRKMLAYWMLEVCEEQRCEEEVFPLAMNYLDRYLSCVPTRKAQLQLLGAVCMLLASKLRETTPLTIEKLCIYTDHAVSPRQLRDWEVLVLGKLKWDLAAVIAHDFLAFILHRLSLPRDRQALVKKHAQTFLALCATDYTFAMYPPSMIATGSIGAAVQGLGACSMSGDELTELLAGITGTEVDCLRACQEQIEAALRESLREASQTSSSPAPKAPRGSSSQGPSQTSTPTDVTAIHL
T2 sequence (P35968 20-1356): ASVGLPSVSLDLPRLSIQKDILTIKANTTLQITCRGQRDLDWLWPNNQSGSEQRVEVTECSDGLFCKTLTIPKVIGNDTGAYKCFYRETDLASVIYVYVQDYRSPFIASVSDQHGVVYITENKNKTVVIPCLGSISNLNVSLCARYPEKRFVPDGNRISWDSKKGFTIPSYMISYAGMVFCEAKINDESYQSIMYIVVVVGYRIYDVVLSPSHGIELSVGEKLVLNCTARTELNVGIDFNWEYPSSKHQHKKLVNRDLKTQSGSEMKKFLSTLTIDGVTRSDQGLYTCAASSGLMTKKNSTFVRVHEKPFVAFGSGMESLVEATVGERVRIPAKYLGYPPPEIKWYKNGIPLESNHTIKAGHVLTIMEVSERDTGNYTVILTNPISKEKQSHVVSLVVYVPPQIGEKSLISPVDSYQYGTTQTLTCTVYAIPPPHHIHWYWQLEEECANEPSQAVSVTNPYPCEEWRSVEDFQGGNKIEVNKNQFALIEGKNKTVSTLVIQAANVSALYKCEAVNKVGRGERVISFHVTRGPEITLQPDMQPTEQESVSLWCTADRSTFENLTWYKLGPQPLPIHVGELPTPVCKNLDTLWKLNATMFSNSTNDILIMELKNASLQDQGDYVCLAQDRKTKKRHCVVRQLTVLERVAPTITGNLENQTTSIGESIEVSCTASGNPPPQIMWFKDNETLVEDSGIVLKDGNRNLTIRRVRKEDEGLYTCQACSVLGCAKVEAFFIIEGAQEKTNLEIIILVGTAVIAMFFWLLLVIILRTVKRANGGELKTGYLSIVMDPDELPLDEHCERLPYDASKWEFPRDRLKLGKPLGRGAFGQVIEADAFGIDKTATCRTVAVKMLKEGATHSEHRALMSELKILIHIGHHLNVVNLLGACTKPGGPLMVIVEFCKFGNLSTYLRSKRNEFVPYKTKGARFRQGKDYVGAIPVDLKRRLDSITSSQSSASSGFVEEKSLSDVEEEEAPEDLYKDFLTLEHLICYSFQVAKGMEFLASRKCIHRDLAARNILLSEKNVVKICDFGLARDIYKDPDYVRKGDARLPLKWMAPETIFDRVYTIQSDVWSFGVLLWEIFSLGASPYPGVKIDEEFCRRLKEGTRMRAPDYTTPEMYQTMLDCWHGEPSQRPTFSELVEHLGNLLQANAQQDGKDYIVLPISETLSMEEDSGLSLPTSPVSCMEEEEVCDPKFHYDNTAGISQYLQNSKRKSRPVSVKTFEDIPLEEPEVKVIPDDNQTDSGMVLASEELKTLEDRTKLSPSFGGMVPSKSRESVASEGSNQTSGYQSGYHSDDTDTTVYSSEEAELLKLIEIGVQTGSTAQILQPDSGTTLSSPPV

Turning to `CC[C@H](CC[C@@H](C)[C@H]1CC[C@H]2[C@@H]3CC=C4C[C@@H](O)CC[C@]4(C)[C@H]3CC[C@]12C)C(C)C` [Compound 1, β-sitosterol], at CDK2/CyclinA2, the IC50 was 581 nM. In the case of `C[C@H]1[C@H](C)CC[C@]2(C(=O)O)CC[C@]3(C)C(=CC[C@@H]4[C@@]5(C)C[C@@H](O)[C@H](O)C(C)(C)[C@@H]5CC[C@]43C)[C@H]12` [Compound 3, corosolic acid], on CDK2/CyclinA2, the IC50 is 239 nM. Take `O=c1c(OC2OCC(O)C(O)C2O)c(-c2ccc(O)c(O)c2)oc2cc(O)cc(O)c12` (stereo not drawn) [Compound 10, quercetin 3-O-β-xyloside]: the IC50 on VEGFR-2 (KDR) is 193 nM; against CDK6/Cyclin D3, 355 nM.

`O=c1cc(-c2ccc(O)c(O)c2)oc2cc(OC3O[C@@H](CO)[C@H](O)[C@@H](O)[C@@H]3O)cc(O)c12` (stereo partly drawn) [Compound 16, luteolin-7-O-β-glucoside]: in the assay with topoisomerase-1, the “inhibitory activity against topoisomerase-1” value was “especially poisonous”.

Broadly, the IC50 is the concentration needed to halve the response being measured.
